In one assay the test system is Dnmt3a^−/− mice. Put plainly: Cytokines measured in BM fluid after ADP-heptose in vivo. Also noted: species or system mouse. The method, then: FIG. 9 depicts the effects of ADP-heptose on inflammatory cytokines and downstream signaling. (A) Heatmap of differentially expressed cytokines and chemokines as measured in the BM fluid of Dnmt3a^WT, Dnmt3a^KO, and Dnmt3a^KO; Alpk1^KO mice treated with ADP-heptose (0.5 mg/kg) in vivo. (B) Immunoblotting performed on THP1 cells untreated or treated with ADP-heptose (1 μg/ml) in combination with DMSO (−), UBE2N inhibitor at 5 μM (+), UBE2N inhibitor at 10 μM (++), IRAK1/4 inhibitor at 0.25 μM (+), and IRAK1/4 inhibitor at 0.5 μM (++) for 30 minutes. (C) Immunoblot analysis of NF-kB modulators on THP1 wildtype (WT), IRAK1KO, IRAK4KO, IRAK1/4d^KO, MyD88KO, and TRAF6^KO cells upon treatment with ADP-heptose (1 μg/ml) for 30 minutes.
Dysregulation of innate immune and inflammatory states is implicated in pre-leukemic conditions and overt leukemia by creating an inflammatory environment suppressive for normal hematopoiesis while promoting leukemic stem and progenitor cell expansion. Moreover, chronic inflammation associated with CHIP is implicated in cardiovascular disease. […] First, to determine whether ADP-heptose treatment creates an inflammatory milieu, Dnmt3a^−/− and WT mice were treated with ADP-heptose and cytokines were measured in the BM fluid.

In assay [1] the test system is Dnmt3a; Alpk1 deficient HSCs. Put plainly: Serial colony replating. Type of assay: cell-based, mouse. The method, then:
(§1) (A) Heatmap representing gene expression analysis of HSPCs isolated from Dnmt3a^WT or Dnmt3a^KO or Dnmt3a^KO; Alpk1^KO mice treated with either H2O or ADP-heptose for 90 minutes in vitro as determined by RNA-sequencing from three independent replicates (1.5 fold; P<0.05). (B) Gene Set Enrichment Analysis (GSEA) of Dnmt3a^KO cells treated with ADP-heptose versus H2O. […] NES, normalized enrichment score. Absolute enrichment score (ES) and corresponding P value are shown for each pathway. (D) Enrichment of transcription factors was determined with the ENCODE and CHIP Enrichment Analysis (ChEA) libraries using genes that are overexpressed in ADP-heptose-stimulated Dnmt3a^WT versus H2O-stimulated Dnmt3a^WT (left panel) or ADP-heptose-stimulated Dnmt3a^KO versus H2O-stimulated Dnmt3a^KO HSPCs (right panel). (E) Representative flow cytometric profile of EdU+HSCs after ADP-heptose or H2O treatment. […] In each plating, colonies were scored at day 14. […] (L) Colony forming potential of Dnmt3a^WT or Dnmt3a^KO HSPCs was evaluated upon treatment with either vehicle, ADP-heptose, or ADP-heptose and UBE2N inhibitor. (M) CD34+ MDS BM and normal CD34+ BM cells treated with vehicle, ADP-heptose, or ADP-heptose and UBE2N inhibitor were evaluated for colony formation in methylcellulose. […]

The next assay relates to Dnmt3a^−/− HSCs. Put plainly: Serial colony replating. Type of assay: cell-based, mouse. The following applies: compared to vehicle. The method, then:
as §1

The results in this text go back to patent US20250314644A1, “METHODS COMPRISING DETECTION OF ADP-HEPTOSE” (CHILDREN'S HOSPITAL MEDICAL CENTER, priority 2023, published 2025).

With `Nc1ncnc2c1ncn2[C@@H]1O[C@H](COP(=O)(O)OP(=O)(O)O[C@@H]2O[C@H]([C@H](O)CO)[C@@H](O)[C@H](O)[C@@H]2O)[C@@H](O)[C@H]1O` [ADP-heptose, ADP-D-glycero-β-D-manno-heptose], the “cytokines in BM fluid (IL-1β, G-CSF, TNFα)” value in the assay on Dnmt3a^−/− mice is recorded as “elevated expression of numerous cytokines”. In addition, the “colony replating response to ADP-heptose” value in assay [1] is given as “did not respond”. Moreover, in the assay with Dnmt3a^−/− HSCs, the serial colony formation entry is recorded as “significantly increased serial colony formation”.
